Reference: BindingDB's records for doi:10.1016/j.bmcl.2009.07.009 (Konkuk University, 2009)

Experiments:
[1] = target: T1, Replicase polyprotein 1ab (Severe acute respiratory syndrome coronavirus, UniProt P0C6X7); assay: Inhibition of SARS coronavirus helicase assessed as duplex-DNA unwinding by FRET based assay
[2] = target: T1, Replicase polyprotein 1ab; assay: Inhibition of ATPase activity of SARS coronavirus helicase assessed as phosphate release by malachite green assay

Row | SMILES | IC50 [1] [µM] | IC50 [2] [µM]
1 | O=c1c(O)ccc2oc(CNCc3ccc(Cl)cc3)cc(O)c1-2 [2-[(4-Chloro-benzylamino)-methyl]-5,6-dihydroxy-chromen-4-one] | > 50 | > 50
2 | N#Cc1cccc(CNCc2cc(O)c3c(=O)c(O)ccc-3o2)c1 [3-{[(5,6-Dihydroxy-4-oxo-4H-chromen-2-ylmethyl)-amino]-methyl}-benzonitrile] | > 50 | > 50
3 | O=c1c(O)ccc2oc(CNCc3cccc(Cl)c3)cc(O)c1-2 [2-[(3-Chloro-benzylamino)-methyl]-5,6-dihydroxy-chromen-4-one] | > 50 | > 50
